Like-named read-outs stand apart in the source and are kept apart here.
What was measured:
Myzus persicae = Myzus persicae test (Example A): spray treatment of infested cabbage leaves; type: in vivo
Source text: (§1) Solvent: 78 parts by weight of acetone

Phaedon cochleariae = Phaedon cochleariae larvae test (Example B): sprayed cabbage leaves populated with mustard beetle larvae; conditions: for pest or weed control at 20 g/ha / pest or weed control at 100 g/ha / pest or weed control at 0.8 g/ha / pest or weed control at 4 g/ha / pest or weed control at 0.16 g/ha: Phaedon cochleariae, in Brassica oleracea, 144 h
Spodoptera frugiperda = Spodoptera frugiperda larvae test (Example C): sprayed cabbage leaves populated with army worm larvae; type: in vivo; conditions: for Destruction in % after 6 d: Table C second series
Source text: as §1

Tetranychus urticae = Tetranychus urticae test (OP-resistant/spray treatment) (Example D): infested bean leaf discs; type: in vivo
Description: as §1
Bean leaf discs (Phaseolus vulgaris) which are infested with all stages of the red spider mite (Tetranychus urticae) are sprayed with an active substance preparation of the desired concentration.
After the desired period of time, the effect is determined in %.

[1] = Myzus persicae, 24 h, read-out: Destruction in % after 1 d
[2] = read-out: Destruction in % after 6 d, 100 g/ha, after 6 d, Table B fourth series
[3] = single active substance, 0.16 g/ha, after 1 d
[4] = read-out: Destruction in % after 6 d, 0.8 g/ha, after 6 d, Table B second series
[5] = read-out: Destruction in % after 6 d, 4 g/ha, after 6 d, Table B second series
[6] = Myzus persicae, 144 h, read-out: Destruction in % after 6 d
[7] = read-out: Destruction in % after 6 d
[8] = read-out: Destruction in % after 6 d, 100 g/ha, after 6 d, Table B second series (r19-r78)
[9] = Myzus persicae, 144 h, single active substance, 0.8 g/ha, after 6 d, read-out: Destruction in % after 6 d
[10] = 20 g/ha, after 6 d, Table B second series

Nc1nc(N)nc(NC2CC2)n1 [Cyromazine, cyromazine]
pest or weed control at 4 g/ha (Myzus persicae; [1]): 0% | pest or weed control at 20 g/ha (Phaedon cochleariae; read-out: Destruction in % after 6 d, 20 g/ha, after 6 d, Table B fourth series (r118-r181)): 0% | pest or weed control at 100 g/ha (Phaedon cochleariae; [2]): 0%

emamectin-benzoate
Destruction in % after 1 d (Myzus persicae; [3]): 0% | Destruction in % after 2 d (Phaedon cochleariae; 0.032 g/ha, Table B first series): 0% | Destruction in % after 2 d (Spodoptera frugiperda; 0.8 g/ha, Table C first series): 50%

Cc1nn(C)c(Oc2ccccc2)c1C=NOCc1ccc(C(=O)OC(C)(C)C)cc1 [Fenpyroximate, fenpyroximate]
pest or weed control at 4 g/ha (Myzus persicae; [1]): 0% | Destruction in % after 6 d (Tetranychus urticae; 4 g/ha): 0%

CC(C)(C)c1ccc(CSc2cnn(C(C)(C)C)c(=O)c2Cl)cc1 [pyridaben]
Destruction in % after 2 d (Tetranychus urticae; 20 g/ha): 50% | pest or weed control at 100 g/ha (Phaedon cochleariae; [2]): 0%

COC(=O)N(C(=O)N1COC2(C(=O)OC)Cc3cc(Cl)ccc3C2=N1)c1ccc(OC(F)(F)F)cc1 (stereo not shown) [Indoxacarb, indoxacarb]
pest or weed control at 20 g/ha (Myzus persicae; [1]): 0% | pest or weed control at 0.8 g/ha (Phaedon cochleariae; [4]): 0% | pest or weed control at 4 g/ha (Phaedon cochleariae; [5]): 33% | Destruction in % after 6 d (Spodoptera frugiperda; 0.8 g/ha): 33% | Destruction in % after 6 d (Spodoptera frugiperda; 4 g/ha): 83%

CC1=NNC(=O)N(/N=C/c2cccnc2)C1 [Pymetrozine, pymetrozine]
pest or weed control at 0.16 g/ha (Myzus persicae; [1]): 0% | pest or weed control at 0.8 g/ha (Myzus persicae; [6]): 50% | pest or weed control at 100 g/ha (Phaedon cochleariae; [2]): 0%

Cc1ccc(/N=C/N(C)/C=N/c2ccc(C)cc2C)c(C)c1 [Amitraz, amitraz]
pest or weed control at 4 g/ha (Myzus persicae; [1]): 0% | pest or weed control at 100 g/ha (Phaedon cochleariae; [2]): 0%

CSC(=O)O/C(=C(/C#N)c1ccc(Cl)cc1)c1ccccc1C(F)(F)F [IKA 2002, O-{(E)-2-(4-chlorophenyl)-2-cyano-1-[2-(trifluoromethyl)phenyl]ethenyl}S-methyl thiocarbonate]
pest or weed control at 20 g/ha (Phaedon cochleariae; [7]): 0% | pest or weed control at 100 g/ha (Phaedon cochleariae; [7]): 0%

N#CCNC(=O)c1cnccc1C(F)(F)F [Flonicamid, flonicamid]
pest or weed control at 0.8 g/ha (Myzus persicae; [1]): 0% | pest or weed control at 100 g/ha (Phaedon cochleariae; [8]): 0%

CC[S+]([O-])c1c(C#N)nn(-c2c(Cl)cc(C(F)(F)F)cc2Cl)c1N (stereo not shown) [Ethiprole, ethiprole]
pest or weed control at 4 g/ha (Myzus persicae; [1]): 0% | pest or weed control at 4 g/ha (Myzus persicae; [6]): 0% | pest or weed control at 0.8 g/ha (Phaedon cochleariae; [4]): 33% | pest or weed control at 4 g/ha (Phaedon cochleariae; [5]): 67%

CNC(=O)c1cc(Cl)cc(C)c1NC(=O)c1cc(Br)nn1-c1ncccc1Cl [Rynaxapyr, 3-bromo-N-{4-chloro-2-methyl-6-[(methylamino)carbonyl]phenyl}-1-(3-chloropyridin-2-yl)-1H-pyrazole-5-carboxamide]
pest or weed control at 0.8 g/ha (Myzus persicae; [1]): 0% | pest or weed control at 0.032 g/ha (Myzus persicae; [6]): 0% | pest or weed control at 4 g/ha (Phaedon cochleariae; [5]): 50% | Destruction in % after 6 d (Spodoptera frugiperda; 0.16 g/ha): 33%

CCOCn1c(-c2ccc(Cl)cc2)c(C#N)c(Br)c1C(F)(F)F [Chlorfenapyr, chlorfenapyr]
pest or weed control at 4 g/ha (Myzus persicae; [1]): 0% | Destruction in % after 2 d (Phaedon cochleariae; 100 g/ha, Table B third series): 67% | Destruction in % after 2 d (Spodoptera frugiperda; 20 g/ha, Table C third series): 33%

CC(C)c1cc(Oc2ccccc2)cc(C(C)C)c1NC(=S)NC(C)(C)C [Diafenthiuron, diafenthiuron]
pest or weed control at 4 g/ha (Myzus persicae; [1]): 0% | Destruction in % after 2 d (Tetranychus urticae; 100 g/ha): 0% | Destruction in % after 6 d (Tetranychus urticae; 100 g/ha): 0%

COCCOC(=O)C(C#N)(C(=O)c1ccccc1C(F)(F)F)c1ccc(C(C)(C)C)cc1 (stereo not drawn) [Cyflumetofen, 2-methoxyethyl alpha-cyano-alpha-[4-(1,1,dimethylethyl)phenyl]-beta-oxo-2-(trifluoromethyl)benzenepropanoate]
pest or weed control at 4 g/ha (Myzus persicae; [1]): 0% | Destruction in % after 6 d (Tetranychus urticae; 4 g/ha): 70% | pest or weed control at 100 g/ha (Phaedon cochleariae; [2]): 0%

N#Cc1ccc(CC(=NNC(=O)Nc2ccc(OC(F)(F)F)cc2)c2cccc(C(F)(F)F)c2)cc1 (mixture of isomers) [Metaflumizone, 2-[2-(4-cyanophenyl)-1-[3-(trifluoromethyl)-phenyl]ethylidene]-N-[4-(trifluoromethoxy)phenyl]hydrazinecarboxamide]
pest or weed control at 0.8 g/ha (Myzus persicae; [9]): 0% | pest or weed control at 100 g/ha (Phaedon cochleariae; [7]): 0% | Destruction in % after 6 d (Spodoptera frugiperda; 20 g/ha): 0% | Destruction in % after 6 d (Spodoptera frugiperda; 100 g/ha): 83%

O=C1C=C(N(CCF)Cc2ccc(Cl)nc2)CO1 [Compound (I-4), 4-{[(6-chloropyrid-3-yl)methyl](2-fluoroethyl)amino}furan-2(5H)-one]
pest or weed control at 0.8 g/ha (Myzus persicae; Myzus persicae, 24 h, single active substance, 0.8 g/ha, after 1 d, read-out: Destruction in % after 1 d): 0% | pest or weed control at 4 g/ha (Myzus persicae; Myzus persicae, 24 h, single active substance, 4 g/ha, after 1 d, read-out: Destruction in % after 1 d): 30% | pest or weed control at 0.8 g/ha (Myzus persicae; [9]): 0% | pest or weed control at 4 g/ha (Myzus persicae; Myzus persicae, 144 h, single active substance, 4 g/ha, after 6 d, read-out: Destruction in % after 6 d): 60% | Destruction in % after 2 d (Tetranychus urticae; 0.8 g/ha): 0% | Destruction in % after 2 d (Tetranychus urticae; 4 g/ha): 0% | Destruction in % after 6 d (Tetranychus urticae; 4 g/ha): 0% | Destruction in % after 2 d (Tetranychus urticae; 20 g/ha): 0% | Destruction in % after 6 d (Phaedon cochleariae; [10]): 0% | Destruction in % after 2 d (Phaedon cochleariae; 100 g/ha, Table B third series): 33% | pest or weed control at 0.8 g/ha (Phaedon cochleariae; [7]): 0% | pest or weed control at 20 g/ha (Phaedon cochleariae; [7]): 0% | pest or weed control at 100 g/ha (Phaedon cochleariae; [7]): 33% | Destruction in % after 6 d (Spodoptera frugiperda; 0.16 g/ha): 0% | Destruction in % after 6 d (Spodoptera frugiperda; 0.8 g/ha): 0% | Destruction in % after 2 d (Spodoptera frugiperda; 4 g/ha, Table C third series): 0% | Destruction in % after 2 d (Spodoptera frugiperda; 20 g/ha, Table C third series): 0% | Destruction in % after 6 d (Spodoptera frugiperda; 100 g/ha): 0%

CN(Cc1cnc(Cl)c(F)c1)C1=CC(=O)OC1 [Compound (I-6), 4-{[(6-chloro-5-fluoropyrid-3-yl)methyl](methyl)amino}furan-2(5H)-one]
pest or weed control at 0.16 g/ha (Myzus persicae; Myzus persicae, 24 h, single active substance, 0.16 g/ha, after 1 d, read-out: Destruction in % after 1 d): 0% | pest or weed control at 0.16 g/ha (Myzus persicae; Myzus persicae, 144 h, single active substance, 0.16 g/ha, after 6 d, read-out: Destruction in % after 6 d): 0% | pest or weed control at 0.8 g/ha (Myzus persicae; [9]): 70% | Destruction in % after 2 d (Tetranychus urticae; 0.16 g/ha): 0% | Destruction in % after 6 d (Tetranychus urticae; 4 g/ha): 0% | Destruction in % after 2 d (Tetranychus urticae; 20 g/ha): 0% | Destruction in % after 6 d (Tetranychus urticae; 100 g/ha): 50% | Destruction in % after 2 d (Phaedon cochleariae; 0.8 g/ha, Table B first series): 0% | Destruction in % after 6 d (Phaedon cochleariae; [10]): 0% | Destruction in % after 2 d (Phaedon cochleariae; 100 g/ha, Table B third series): 33% | pest or weed control at 0.16 g/ha (Phaedon cochleariae; [7]): 0% | pest or weed control at 0.8 g/ha (Phaedon cochleariae; [7]): 0% | pest or weed control at 4 g/ha (Phaedon cochleariae; [7]): 0% | pest or weed control at 20 g/ha (Phaedon cochleariae; [7]): 0% | Destruction in % after 6 d (Spodoptera frugiperda; 0.8 g/ha): 0% | Destruction in % after 2 d (Spodoptera frugiperda; 4 g/ha, Table C third series): 0% | Destruction in % after 2 d (Spodoptera frugiperda; 20 g/ha, Table C first series): 0% | Destruction in % after 2 d (Spodoptera frugiperda; 20 g/ha, Table C third series): 0% | Destruction in % after 6 d (Spodoptera frugiperda; 20 g/ha): 0%

abamectin
Destruction in % after 1 d (Myzus persicae; [3]): 0% | Destruction in % after 2 d (Tetranychus urticae; 0.0064 g/ha): 50% | Destruction in % after 2 d (Phaedon cochleariae; 4 g/ha, Table B third series): 67%

milbemectin
Destruction in % after 1 d (Myzus persicae; [3]): 0% | Destruction in % after 6 d (Tetranychus urticae; 0.16 g/ha): 0%

CCc1nn(C)c(C(=O)NCc2ccc(C(C)(C)C)cc2)c1Cl [tebufenpyrad]
Destruction in % after 2 d (Tetranychus urticae; 4 g/ha): 10% | Destruction in % after 2 d (Phaedon cochleariae; 100 g/ha, Table B third series): 50%

O=C1C=C(N(Cc2ccc(Cl)nc2)CC(F)F)CO1 [Compound (I-5), 4-{[(6-chloropyrid-3-yl)methyl](2,2-difluoroethyl)amino}furan-2(5H)-one]
pest or weed control at 0.8 g/ha (Myzus persicae; [1]): 10% | pest or weed control at 4 g/ha (Myzus persicae; [1]): 70% | pest or weed control at 0.8 g/ha (Myzus persicae; [6]): 10% | Destruction in % after 2 d (Tetranychus urticae; 0.16 g/ha): 0% | Destruction in % after 2 d (Tetranychus urticae; 4 g/ha): 0% | Destruction in % after 6 d (Tetranychus urticae; 4 g/ha): 0% | Destruction in % after 2 d (Phaedon cochleariae; 0.8 g/ha, Table B first series): 0% | Destruction in % after 6 d (Phaedon cochleariae; 20 g/ha, after 6 d, Table B fourth series): 0% | Destruction in % after 2 d (Phaedon cochleariae; 100 g/ha, Table B third series): 50% | pest or weed control at 0.16 g/ha (Phaedon cochleariae; read-out: Destruction in % after 6 d, 0.16 g/ha, after 6 d, Table B second series): 0% | pest or weed control at 0.8 g/ha (Phaedon cochleariae; [4]): 0% | pest or weed control at 100 g/ha (Phaedon cochleariae; [2]): 33% | pest or weed control at 100 g/ha (Phaedon cochleariae; [8]): 0% | Destruction in % after 6 d (Spodoptera frugiperda; 0.16 g/ha): 0% | Destruction in % after 6 d (Spodoptera frugiperda; 0.8 g/ha): 0% | Destruction in % after 2 d (Spodoptera frugiperda; 4 g/ha, Table C third series): 0% | Destruction in % after 2 d (Spodoptera frugiperda; 20 g/ha, Table C third series): 0% | Destruction in % after 6 d (Spodoptera frugiperda; 20 g/ha): 0%

Cc1nn(C)c(/C(OC(=O)C(C)(C)C)=C(\C#N)c2ccc(C(C)(C)C)cc2)c1C [Cyenopyrafen, (1E)-2-cyano-2-[4-(1,1-dimethylethyl)phenyl]-1-(1,3,4-trimethyl-1H-pyrazol-5-yl)ethenyl 2,2-dimethylpropanoate]
pest or weed control at 4 g/ha (Myzus persicae; [1]): 0% | Destruction in % after 2 d (Tetranychus urticae; 0.16 g/ha): 0% | Destruction in % after 2 d (Tetranychus urticae; 0.8 g/ha): 50% | pest or weed control at 100 g/ha (Phaedon cochleariae; [2]): 0%

N#Cc1nn(-c2c(Cl)cc(C(F)(F)F)cc2Cl)c(N)c1[S+]([O-])C(F)(F)F (stereo not shown) [Fipronil, fipronil]
pest or weed control at 20 g/ha (Myzus persicae; [1]): 30% | pest or weed control at 0.8 g/ha (Myzus persicae; [6]): 0% | Destruction in % after 6 d (Spodoptera frugiperda; 0.8 g/ha): 17%

spinosad
Destruction in % after 6 d (Myzus persicae; single active substance, 0.8 g/ha, after 6 d): 0% | Destruction in % after 2 d (Tetranychus urticae; 4 g/ha): 20% | Destruction in % after 6 d (Phaedon cochleariae; 0.8 g/ha, after 6 d, Table B fourth series): 50% | Destruction in % after 2 d (Spodoptera frugiperda; 0.8 g/ha, Table C third series): 0%
